Assay: In vitro percutaneous permeation of C2E5 nonaqueous gel spiked with [14C]-C2E5
Format: in vitro ADME, Sprague-Dawley (SD) rat
Protocol: An in vitro permeation study was carried out using a vertical diffusion cell system equipped with an autosampler (Hanson Microette Autosampling System, Hanson Research Co., USA). The area for permeation was 1.767 cm^2, and the receiver compartment volume was 7 mL. The experiments were run at 32° C. and stirred magnetically at 400 rpm. The receiver medium was 0.1M phosphate buffer (pH 7.4). SD rat skin samples were prepared by harvesting dorsal skin samples from freshly euthanized (<1 h) SD rats (n=9, 200-300 g). The skin was shaved and the subcutaneous fat tissue was carefully peeled from the dermis layer to remove potential interference due to high levels of esterase activity in subcutaneous tissue. The processed skin samples were inspected visually for membrane integrity. The qualified skin samples were stored at −20° C. until use. The SD rat skin samples were first allowed to thaw for at least 1 h in the receiver medium, and then mounted and clamped between the receiver and donor compartments of the diffusion cells. […] ([^14C]-C2E5; 50 mCi/mmol) labeled at carbon-1 (carbonyl carbon) was purchased from American Radiolabeled Chemicals, Inc., St. Louis, Mo.).
Collected samples were dispensed into Ultima Gold™ scintillation cocktail at a ratio of 100 μL:10 mL and assayed directly for radioactivity by liquid scintillation counting (LSC) using a Packard TriCarb 3100TR (PerkinElmer Life and Analytical Sciences) with automatic quench correction. Samples were counted for 10 min or until a 5% confidence level was achieved. The samples were subsequently assayed for intact C2E5 and its metabolites using HPLC-FSA. The cumulative releases of C2E5 and its metabolites were plotted as a function of time.
Fick's law (Equation 4) has been used as a simple model to describe the steady-state diffusion of drug through the skin:
where Jss=steady-state flux (mol/hr); D=drug diffusivity (cm^2/hr); h=membrane thickness (cm); Ksc/veh=drug's stratum corneum-vehicle partition coefficient; Cveh=drug concentration (mg/cm^3) in the vehicle; and A=surface area (cm^2). The cumulative amount of C2E5 and its metabolites permeated through the SD rat skin versus time is presented in FIG. 1, The overall concentrations of C2E5 and its metabolites in receiver compartment at different time points were calculated based on Equation 5.
The concentrations of C2E5 and its metabolites in the collected samples from the receiver compartment at different time points were analyzed by HPLC-FSA.

CCOC(=O)CN(CCN(CC(=O)OCC)CC(=O)OCC)CCN(CC(=O)OCC)CC(=O)OCC [Formulation C2E5, penta-substituted ethyl ester of DTPA]
cumulative amount of C2E5 and its metabolites permeated through the rat skin (at 8 h): 1.98 μmol/cm^2 | initially applied C2E5 dose permeated through the rat skin (C2E5 and its metabolites) (at 8 h, gel 6% EC10, 25% C2E5, 69% MIGLYOL 840): ~10% | cumulative amount of C2E5 and its metabolites permeated through the rat skin (at 23 h): 3.55 μmol/cm^2 | diffusional lag time through SD rat skin (gel 6% EC10, 25% C2E5, 69% MIGLYOL 840): 0.33 h | Jss per unit area through SD rat skin (steady-state between 2 h and 7 h, gel 6% EC10, 25% C2E5, 69% MIGLYOL 840): 0.276 μmol/cm^2/h

Source: patent publication US20140243411A1 (priority 2011, published 2014)
